From patent US20150105252A1, “SUBSTITUTED PYRAZOLES AS HERBICIDES” (E I DU PONT DE NEMOURS AND COMPANY, priority 2013, published 2015)

How the values were obtained:
corn = assay: Test A postemergence; type: in vivo, Zea mays
How it was run: (§1)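 Injury readout: eye-scored versus untreated controls, 0 to 100. Exposure period: ~10 days, greenhouse. Application: soil-directed spray over sown seed (pre) or spray on seedlings 2–10 cm tall with one or two leaves (post), compound carried in non-phytotoxic solvent including surfactant.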

johnsongrass = assay: Test C preemergence; type: in vivo, Sorghum halepense; conditions: for Johnsongrass plant response rating / Plant response rating, Johnsongrass: preemergence; for Plant response rating, Johnsongrass: 125 g ai/ha, scale 0 to 100, 0 = no effect, 100 = complete control
How it was run: (§2)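 Visual control ratings on a 0–100 scale (100 = complete control) made against untreated controls after 13 to 15 days in greenhouse. Compounds applied in surfactant-containing solvent mixture, either preemergence to loam/sand-sown seeds or postemergence to 1- to 4-leaf plants (2–18 cm) in peat medium.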

ryegrass, Italian = assay: Test C preemergence; type: in vivo, Lolium multiflorum; conditions: for Ryegrass, Italian plant response rating / Plant response rating, Ryegrass, Italian: preemergence; for Plant response rating, Ryegrass, Italian: 125 g ai/ha, scale 0 to 100, 0 = no effect, 100 = complete control
How it was run: as §2

galium = assay: Test C preemergence; type: in vivo, Galium aparine; conditions: for Galium plant response rating / Plant response rating, Galium: preemergence; for Plant response rating, Galium: 125 g ai/ha, scale 0 to 100, 0 = no effect, 100 = complete control
How it was run: as §2

foxtail, giant [1] = assay: Test A preemergence; type: in vivo, Setaria faberii; conditions: preemergence
How it was run: as §1

soybean = assay: Test C preemergence; type: in vivo, Glycine max; conditions: for Soybean plant response rating / Plant response rating, Soybean: preemergence; for Plant response rating, Soybean: 125 g ai/ha, scale 0 to 100, 0 = no effect, 100 = complete control
How it was run: as §2

sedge, umbrella = assay: Test B flood; type: in vivo, Cyperus difformis; conditions: 250 g ai/ha, visual rating on 0 to 100 scale (0 no effect, 100 complete control), 13 to 15 days
How it was run: (§3)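 2-leaf plants; pots flooded 3 cm over soil; compound added to paddy water, depth kept constant. Greenhouse 13–15 d. Visual rating vs controls, 0–100 scale (100 = complete control); dash = no result.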

wheat = assay: Test A preemergence; type: in vivo, Triticum aestivum; conditions: preemergence
How it was run: as §1

barnyardgrass = assay: Test C preemergence; type: in vivo, Echinochloa crus-galli; conditions: for Barnyardgrass plant response rating / Plant response rating, Barnyardgrass: preemergence; for Plant response rating, Barnyardgrass: 125 g ai/ha, scale 0 to 100, 0 = no effect, 100 = complete control
How it was run: as §2

nutsedge, yellow = assay: Test C preemergence; type: in vivo, Cyperus esculentus; conditions: for Nutsedge, Yellow plant response rating / Plant response rating, Nutsedge, Yellow: preemergence; for Plant response rating, Nutsedge, Yellow: 125 g ai/ha, scale 0 to 100, 0 = no effect, 100 = complete control
How it was run: as §2

foxtail, giant [2] = assay: Test A postemergence; type: in vivo, Setaria faberii
How it was run: as §1

ragweed = assay: Test C preemergence; type: in vivo, Ambrosia elation; conditions: for Ragweed plant response rating / Plant response rating, Ragweed: preemergence; for Plant response rating, Ragweed: 125 g ai/ha, scale 0 to 100, 0 = no effect, 100 = complete control
How it was run: as §2

morningglory = assay: Test A postemergence; type: in vivo, Ipomoea spp.
How it was run: as §1

ducksalad = assay: Test B flood; type: in vivo, Heteranthera limosa; conditions: 250 g ai/ha, visual rating on 0 to 100 scale (0 no effect, 100 complete control), 13 to 15 days
How it was run: as §3

[3] = Postemergence, 500 g ai/ha, 0 to 100 scale (0 no effect, 100 complete control)
[4] = postemergence, 125 g ai/ha, about 10 days, visual rating on 0 to 100 scale (0 no effect, 100 complete control)
[5] = 31 g ai/ha, visual rating, scale 0 to 100 (0 no effect, 100 complete control), 13 to 15 days
[6] = 62 g ai/ha, scale 0 to 100 (0 no effect, 100 complete control), 13 to 15 days
[7] = 125 g ai/ha, visual injury, 0 to 100 scale, approx. 10 days
[8] = 500 g ai/ha, visual injury after approx. 10 days, 0 to 100 scale (0 no effect, 100 complete control)
[9] = 31 g ai/ha, scale 0 to 100 (0 no effect, 100 complete control), 13 to 15 days
[10] = 250 g ai/ha, scale 0 to 100, 0 is no effect, 100 is complete control
[11] = 125 g ai/ha, visual injury approx. 10 days after treatment

| Structure (SMILES) | Corn plant response rating (corn; [3]) | Corn plant response rating (corn; [4]) | Johnsongrass plant response rating (johnsongrass; [5]) | Plant response rating, Johnsongrass (johnsongrass; 13 to 15 days) | Ryegrass, Italian plant response rating (ryegrass, Italian; [5]) | Ryegrass, Italian plant response rating (ryegrass, Italian; [6]) | Plant response rating, Ryegrass, Italian (ryegrass, Italian; 13 to 15 days) | Galium plant response rating (galium; [5]) | Galium plant response rating (galium; [6]) | Plant response rating, Galium (galium; 13 to 15 days) | Foxtail, Giant plant response rating (foxtail, giant [1]; [8]) | Soybean plant response rating (soybean; [5]) | Soybean plant response rating (soybean; [6]) | Plant response rating, Soybean (soybean; 13 to 15 days) | Plant response rating, Sedge, Umbrella (sedge, umbrella) | Wheat plant response rating (wheat; [8]) | Plant response rating, Barnyardgrass (barnyardgrass; 13 to 15 days) | Nutsedge, Yellow plant response rating (nutsedge, yellow; [5]) | Nutsedge, Yellow plant response rating (nutsedge, yellow; [6]) | Plant response rating, Nutsedge, Yellow (nutsedge, yellow; 13 to 15 days) | further results |
| --- | --- | --- | --- | --- | --- | --- | --- | --- | --- | --- | --- | --- | --- | --- | --- | --- | --- | --- | --- | --- | --- |
| CCCNC(=O)c1cc(CC)n(Cc2ccnc(OC(F)F)c2)n1 [Compound 132] | 90 | 70 | 25 | 100 | 15 | 85 | 98 | 98 | 100 | 100 | 100 | 35 | 75 | 90 | 90 | 100 | 100 | 35 | 55 | 80 | Plant response rating (scale of 0 to 100), Johnsongrass (johnsongrass; Preemergence, 250 g ai/ha): 100; Johnsongrass plant response rating (johnsongrass; [6]): 90; Plant response rating (scale of 0 to 100), Ryegrass, Italian (ryegrass, Italian; Preemergence, 250 g ai/ha): 98; Plant response rating (scale of 0 to 100), Galium (galium; Preemergence, 250 g ai/ha): 100; Foxtail, Giant plant response rating (foxtail, giant [1]; [7]): 100; Plant response rating (scale of 0 to 100), Soybean (soybean; Preemergence, 250 g ai/ha): 95; Wheat plant response rating (wheat; [7]): 80; Plant response rating (scale of 0 to 100), Barnyardgrass (barnyardgrass; Preemergence, 250 g ai/ha): 100; Barnyardgrass plant response rating (barnyardgrass; [9]): 95; Barnyardgrass plant response rating (barnyardgrass; [6]): 100; Plant response rating (scale of 0 to 100), Nutsedge, Yellow (nutsedge, yellow; Preemergence, 250 g ai/ha): 70; Foxtail, Giant plant response rating (foxtail, giant [2]; [3]): 90; Foxtail, Giant plant response rating (foxtail, giant [2]; [4]): 80; Plant response rating (scale of 0 to 100), Ragweed (ragweed; Preemergence, 250 g ai/ha): 100; Ragweed plant response rating (ragweed; [5]): 70; Ragweed plant response rating (ragweed; [6]): 90; Plant response rating, Ragweed (ragweed; 13 to 15 days): 100; Morningglory plant response rating (morningglory; [3]): 100; Morningglory plant response rating (morningglory; [4]): 90; Plant response rating, Ducksalad (ducksalad): 100 |
| CCc1cc(C(=O)NC(C)C)nn1Cc1ccnc(C(F)(F)F)c1 [Compound 139] | 90 | 50 | 10 | 85 | 10 | 60 | 90 | 30 | 80 | 100 | 100 | 5 | 5 | 30 | 100 | 100 | 100 | 15 | 10 | 35 | Johnsongrass plant response rating (johnsongrass; [6]): 70; Johnsongrass plant response rating (johnsongrass; [10]): 98; Ryegrass, Italian plant response rating (ryegrass, Italian; [10]): 90; Galium plant response rating (galium; [10]): 100; Foxtail, Giant plant response rating (foxtail, giant [1]; [7]): 100; Soybean plant response rating (soybean; [10]): 60; Wheat plant response rating (wheat; [7]): 50; Barnyardgrass plant response rating (barnyardgrass; [9]): 40; Barnyardgrass plant response rating (barnyardgrass; [6]): 98; Barnyardgrass plant response rating (barnyardgrass; [10]): 100; Nutsedge, Yellow plant response rating (nutsedge, yellow; [10]): 50; Foxtail, Giant plant response rating (foxtail, giant [2]; [3]): 90; Foxtail, Giant plant response rating (foxtail, giant [2]; [4]): 90; Ragweed plant response rating (ragweed; [5]): 15; Ragweed plant response rating (ragweed; [6]): 75; Plant response rating, Ragweed (ragweed; 13 to 15 days): 90; Ragweed plant response rating (ragweed; [10]): 95; Morningglory plant response rating (morningglory; [3]): 100; Morningglory plant response rating (morningglory; [4]): 60; Plant response rating, Ducksalad (ducksalad): 100 |
| O=C(NCC(F)(F)F)c1cc(CCCl)n(Cc2ccnc(C(F)(F)F)c2)n1 [Compound 143] | 90 | 60 | 70 | 95 | 35 | 80 | 90 | 90 | 100 | 95 | 100 | 35 | 85 | 98 | 95 | 100 | 100 | 30 | 40 | 80 | Johnsongrass plant response rating (johnsongrass; [6]): 85; Johnsongrass plant response rating (johnsongrass; [10]): 95; Ryegrass, Italian plant response rating (ryegrass, Italian; [10]): 90; Galium plant response rating (galium; [10]): 100; Foxtail, Giant plant response rating (foxtail, giant [1]; [7]): 100; Soybean plant response rating (soybean; [10]): 98; Wheat plant response rating (wheat; [7]): 70; Barnyardgrass plant response rating (barnyardgrass; [5]): 75; Barnyardgrass plant response rating (barnyardgrass; [6]): 100; Barnyardgrass plant response rating (barnyardgrass; [10]): 100; Nutsedge, Yellow plant response rating (nutsedge, yellow; [10]): 90; Foxtail, Giant plant response rating (foxtail, giant [2]; [3]): 90; Foxtail, Giant plant response rating (foxtail, giant [2]; [4]): 90; Ragweed plant response rating (ragweed; [5]): 98; Ragweed plant response rating (ragweed; [6]): 98; Plant response rating, Ragweed (ragweed; 13 to 15 days): 95; Ragweed plant response rating (ragweed; [10]): 100; Morningglory plant response rating (morningglory; [3]): 100; Morningglory plant response rating (morningglory; [4]): 40; Plant response rating, Ducksalad (ducksalad): 100 |
| CCCNC(=O)c1cc(CCCl)n(Cc2ccnc(C(F)(F)F)c2)n1 [Compound 145] | 90 | 60 | 55 | 98 | 5 | 45 | 85 | 90 | 95 | 95 | 100 | 20 | 70 | 85 | 95 | 100 | 100 | 10 | 75 | 60 | Johnsongrass plant response rating (johnsongrass; [10]): 98; Ryegrass, Italian plant response rating (ryegrass, Italian; [10]): 90; Galium plant response rating (galium; [10]): 100; Foxtail, Giant plant response rating (0 to 100 scale) (foxtail, giant [1]; [11]): 100; Soybean plant response rating (soybean; [10]): 95; Wheat plant response rating (0 to 100 scale) (wheat; [11]): 40; Barnyardgrass plant response rating (barnyardgrass; [5]): 95; Barnyardgrass plant response rating (barnyardgrass; [10]): 100; Nutsedge, Yellow plant response rating (nutsedge, yellow; [10]): 90; Foxtail, Giant plant response rating (foxtail, giant [2]; [3]): 90; Foxtail, Giant plant response rating (foxtail, giant [2]; [4]): 90; Ragweed plant response rating (ragweed; [5]): 75; Ragweed plant response rating (ragweed; [6]): 95; Plant response rating, Ragweed (ragweed; 13 to 15 days): 95; Ragweed plant response rating (ragweed; [10]): 98; Morningglory plant response rating (morningglory; [3]): 100; Morningglory plant response rating (morningglory; [4]): 80; Plant response rating, Ducksalad (ducksalad): 100 |
